Measurements published in patent US20160287609A1, “ROR GAMMA MODULATORS” (ETH ZÜRICH, priority 2013, published 2016).

Each molecule was assayed against T1, RORγ (Homo sapiens, UniProt P51449) (assay: Luciferase transfection assay: repression of RORγ transcriptional activity (MMP3 promoter reporter, dual luciferase)). Conditions: 10 μM added to growth medium of transfected 3T3L1 cells; firefly/renilla luciferase ratio 48 h after transfection; average, n at least 6.
T1 construct: the cells were transfected with an expression vector for full-length RORγ; expressed in transfected cells; host or cells: 3T3L1 (mouse pre-adipocyte) cells, pcDNA3 expression vector, CMV promoter
T1 sequence (P51449 1-518): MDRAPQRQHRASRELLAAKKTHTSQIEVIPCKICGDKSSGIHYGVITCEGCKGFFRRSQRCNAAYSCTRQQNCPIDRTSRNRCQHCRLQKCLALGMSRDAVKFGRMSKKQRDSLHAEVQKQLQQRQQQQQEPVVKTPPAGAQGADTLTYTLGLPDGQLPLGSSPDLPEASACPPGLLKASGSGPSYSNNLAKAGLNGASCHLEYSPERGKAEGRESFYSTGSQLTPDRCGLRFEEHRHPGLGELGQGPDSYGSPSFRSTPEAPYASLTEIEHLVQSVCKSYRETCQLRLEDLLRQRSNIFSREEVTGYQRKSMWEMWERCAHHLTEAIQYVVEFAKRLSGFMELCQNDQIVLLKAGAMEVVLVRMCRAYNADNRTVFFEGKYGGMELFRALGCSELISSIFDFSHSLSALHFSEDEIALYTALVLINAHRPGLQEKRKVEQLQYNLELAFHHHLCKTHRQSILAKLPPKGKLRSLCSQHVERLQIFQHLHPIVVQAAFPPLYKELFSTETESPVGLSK
Assay type: cell-based
Procedure: Adipocyte-like 3T3L1 cells grown to 60-70% confluence in 24 well dishes were used for the assay. The cells were transfected with the reporter gene (pMMP3-pGL3) or the respective empty pGL3 vector as control at a concentration of 0.1 μg/well. The pMMP3-pGL3 reporter expresses the luciferase gene under the control of the promoter of the RORγ target gene matrix metalloproteinase 3 (MMP3). In addition the cells were transfected with an expression vector for full-length RORγ or the respective empty pcDNA3 control vector at 0.1 ug/well. The pCMV-Renilla plasmid served as internal control to normalize for transfection efficacy at a concentration of 0.05 μg/well. All plasmids were transfected at the same time into the cell using the transfection reagent Fugene according to the manufacture's protocol (Promega). […] Firefly as well as renilla luciferase activity was measured 48 h after transfection using the Dual Luciferase Detection System (Promega) following the instructions provided by the manufacturer.
Compounds 13a, 13b and 14a were tested for their ability to inhibit gene transcription induced by the orphan nuclear receptor RORγ using a dual luciferase assay. […] This system allows to determine if a substance of interest is actively repressing the transcriptional activity of RORγ by using reduced luciferase activity as a read-out (FIG. 2).
For the actual experiment 60-70% confluent 3T3L1 pre-adipocytes were transfected with the MMP3 reporter, RORγ and the normalization vector expressing renilla luciferase. […] 48 h after introducing the plasmids, the cells were harvested, lysed and the activity of firefly as well as renilla luciferase measured in each well. The efficacy of a substance to repress RORγ activity was calculated from the ratio of firefly over renilla luciferase activity and normalization to the control wells and the DMSO treated wells. […]
In the case of `C[C@H](C[C@@H](O)C(=O)O)C1C[C@H](O)[C@H]2C3C(CC[C@]12C)[C@@]1(C)CC[C@@H](O)C[C@H]1C[C@H]3O` (stereo partly drawn) [Compound 13a, 3α,7α,15α,(23R)-tetrahydroxy-5β-cholanoic acid], the “transcriptional activity of RORγ, as % of the intensity measured in the presence of DMSO” value (from here on “transcriptional activity of RORγ, as % … of DMSO”) is reported as 52%.
In the case of `C[C@H](C[C@@H](O)C(=O)NCCS(=O)(=O)O)C1C[C@H](O)[C@H]2C3C(CC[C@]12C)[C@@]1(C)CC[C@@H](O)C[C@H]1C[C@H]3O` (stereo in doubt) [Compound 14a, 3α,7β,15α,(23R)-tetrahydroxy-5β-24-oxocholanyl-amino ethansulfonic acid], the “transcriptional activity of RORγ, as % … of DMSO” value is reported as 56%.
`C[C@H](C[C@H](O)C(=O)O)C1C[C@H](O)[C@H]2C3C(CC[C@]12C)[C@@]1(C)CC[C@@H](O)C[C@H]1C[C@H]3O` (stereo partly drawn) [Compound 13b, 3α,7α, 15α,(23S)-tetrahydroxy-5β-cholanoic acid] was tested, and the “transcriptional activity of RORγ, as % … of DMSO” value was 57%.
